Results from patent publication US20100145057A1, “NOVEL PRODRUGS” (SUN PHARMA ADVANCED RESEARCH COMPANY LTD., priority 2007, published 2010).
Read-outs that look alike come from different tables or passages of the source.

Columns and labels:
[1] = Comparative bioavailability: baclofen plasma levels after oral baclofen or example 15; type: in vivo; details: 20 ug/kg, baclofen dosed 20 mcg/kg p.o.
Procedure: (§1) The prodrugs compounds of the present invention, i.e. the compounds of formula-I release in-vivo the compounds of formula III. Two of the representative compounds of the present invention i.e. compound of example 5 and compound 15, were tested to determine the comparative bioavailability of the drug and the prodrug. The following method was employed for the determination of bioavailability of the test compound of example 5.
(§2) Table 1 and Table 2 below provide Dose-concentration data for the representative compounds 5 and compound 15 of the invention, which are prodrugs of gabapentin and baclofen respectively.

[2] = Comparative bioavailability: LC-MS determination of gabapentin in plasma after oral gabapentin or example 5; type: in vivo; details: for dose dependence of bioavailability / absorption (in words): data of Table 1, 50 and 100 mg/kg p.o.; for AUC(0-t): po, t = 24 hrs, plasma
Procedure: as §1
Liquid Chromatography Mass Spectrometric Method for the Determination of Gabapentin from Example 5 in Plasma.
Mobile phase: Prepare 2 mM ammonium acetate solution in milliQ water and adjust the pH to 3.0 with formic acid. Mix above buffer solution and acetonitrile in the ratio (30:70 v/v) and filter.
Column: Hypurity C18, 50×2.1 mm, 5μ; Column oven temperature: 40° C.; Flow rate: 0.25 ml/min; Injection volume: 10 μl; Run time: 2.0 min.; Retention time: Example 5: 1.0 min.; Gabapentin: 1.0 min.; Carbamazepine: 1.0 min.;
Mass Parameters: Spray Voltage: 3500 V; Sheath Gas Pressure: 35 ml/min; Capillary Temperature: 380° C.; Mode: Positive; Aux gas pressure: 10 ml/min
For Gabapentin Linearity Range: 200 ng-19600 ng/ml in mobile phase.
For example 5: Linearity Range: 50 ng 5000 ng/ml in mobile phase.
A 100 μl plasma sample and 5 μl of internal standard was taken in a micro centrifuge tube. Vortex for 20-30 sec. The test samples were loaded in preconditioned HLB cartridges. The cartridge was washed with 1 ml Milli-Q water the sample was eluted with 500 μl of mobile phase. The sample was centrifuged at 15000 rpm for 5 minutes and the supernatant was collected for analysis.
as §2

mouse = details: cited from earlier work
[3] = cited from earlier work
[4] = oral; cited from earlier work

## NCC(CC(=O)O)c1ccc(Cl)cc1 (centres unmarked) [Baclofen]
[1]
  Cmax: 3600 ng/mL
[1]; t = 24 hrs
  AUC(0-t): 15000 ng·h/mL

## CCOC(=O)C(C)=NOC(=O)NCC1(CC(=O)O)CCCCC1 [Example 5, N-[(Ethyl oximinopropionate-2-yl)carbonyl]-1-aminomethyl cyclohexaneacetic acid]
[2]
  dose dependence of bioavailability / absorption (in words): dose-proportional bioavailability

## NCC1(CC(=O)O)CCCCC1 [Gabapentin, 1-(aminomethyl)cyclohexaneacetic acid]
mouse
  LD50: > 8000 mg/kg
[2]
  dose dependence of bioavailability / absorption (in words): non-linear saturable absorption, with lower bioavailability at the higher dose
[2]; gabapentin dosed 50 mg/kg p.o.
  AUC(0-t): 85000 ng·h/mL
[2]; gabapentin dosed 100 mg/kg p.o.
  AUC(0-t): 99000 ng·h/mL
[3]; 900 mg/day oral
  oral bioavailability: approximately 60%
[3]; 1800 mg/day oral
  oral bioavailability: ~27%

## NC[C@H]1CC[C@H](C(=O)O)CC1 [Tranexamic acid, trans-4-(aminomethyl)cyclohexanecarboxylic acid]
[4]
  orally administered dose absorbed: 35-40%

## O=C1CC2(CCCCC2)CN1 [corresponding lactam]
mouse
  LD50: 300 mg/kg
